Marks after values point to notes of the source that are not given here.
Key:
Type in all cases: cell-based
L. monocytogenes [1] = experiment: L. monocytogenes cocktail challenge of surfactant/salt solutions at 2° C.; conditions: after 4 hours in solution at 2° C.
Method: Tests were generally run according to the following procedure:
(§1) 1. Inoculate a separate tube containing approximately 10 ml of Brain Heart infusion (BHI) broth with the following L. monocytogenes strains: H2446 (CDC Global Standard), Scott A (serotype 4b), 12243 (serotype 1/2a), and two strains isolated from the environment of a cooked meat and poultry facility, designated WP1, and WP4. Incubate the tubes at least 5 days at 7-10° C.+/−2° C. 2. Assume the growth to be 10^9 cfu/ml. Serially dilute each culture in cold (˜7° C.). Butterfield's Phosphate Buffered Water (PBW) to 10^8 cfu/ml (1:10). Since five cultures of L. monocytogenes are being used as a cocktail, begin the dilution series using 2.20 ml of each culture added to 99 ml of PBW. 3. Plate (−6, −7, −8) the diluted culture to get the starting count of the inoculum on Modified Oxford medium (MOX) using a thin agar overlay (TAL) technique (overlay with Trypticase Soy Agar [TSA]) to revive injured cells. 4. Add 1 ml of the diluted cocktail to 100 ml of cold test solution. 5. Mix the solutions well. 6. Determine the L. monocytogenes population at time 0 and 4 hours. Plate −1 (0.1 ml on 1 plate), −2, −3, and −4 dilutions using spread plates on MOX TAL with TSA. 7. Incubate the test solutions at test temperature for the duration of the experiment. 8. Incubate the MOX TAL with TSA plates at 20° C.+/−2° C. for 72+/−3 hours. Count representative colonies, which are black, and multiply by the dilution factor.

L. monocytogenes [2] = experiment: L. monocytogenes kill in cold salt/acid/surfactant solutions; conditions: for Population at 4 hours: concentrations stated in the solution, no added acid, average of two runs where starred; for L. monocytogenes, Time 4 Hours / L. monocytogenes, Time 0: cold
Method: To study chilling brine application of the current embodiment, tests were run on 17% by weight solutions of formulas consisting of between 0.3% and 6.0% citric acid, between 50 and 500 ppm SLS, and between 94% and 99.7% sodium chloride. Test solutions were cooled to −7° C. and inoculated with several strains of L. monocytogenes.
An experiment was run to determine if solutions containing sodium chloride, sodium lauryl sulfate, and various acids would kill L. monocytogenes at cold temperatures. […] A 1.0 ml aliquot of this suspension was added to 100 ml of cold (−7° C.+2° C.) test solution and mixed well, providing an initial inoculum of 10^3 CFU/ml. The test solutions were incubated at −7° C.+/−2° C. for the duration of the experiment. At intervals of 0, 4, and 24 hours the L. monocytogenes populations in the test solutions were determined on Modified Oxford agar (MOX). MOX plates were incubated at 35° C.+/−2° C. for approximately 48 hours. Colonies were then counted and compared to the initial inoculum counts.
Each test solution was a 17% by weight solution of the listed formula prepared in soft water.
In another experiment, 17% by weight solutions of formulas containing various levels of sodium chloride, citric acid, and sodium lauryl sulfate were tested for effectiveness in killing L. monocytogenes at cold temperatures. The same test procedure was used as described above, except test solutions were plated on MOX with a Thin Agar Overlay of TSA (to aid in the recovery of injured cells).
In another experiment, two sets of solutions were tested. The first set (samples 1-12 in Table 10 below) was prepared in hard tap water and contained about 17.0% by mass of the formulation. These samples were inoculated with 10^3 CFU/ml L. monocytogenes by the same procedure as described above. A second set of samples was prepared from brine taken from a ready-to-eat meat processing operation. The recirculated brine had been used to chill packaged meat for one week. After a week of use the brine typically contains various types of aerobic psychotropic and mesophilic bacteria. This experiment was done in order to determine if the additives would kill the microorganisms naturally occurring in actual process brine from a plant. Since the spent chill brine samples already contained NaCl citric acid and/or SLS was added to provide an effective concentration of additive. One set of these samples (samples 13-17) were inoculated with 10^3 L. monocytogenes and the other set (samples 18-22) contained only the naturally occurring organisms in the spent chill brine. […] Other antimicrobials, such as quaternary ammonium compounds can lose significant activity in hard water, often necessitating further additives, such as EDTA as a chelating agent, to maintain antimicrobial activity.
Another set of experiments was done in order to determine the effectiveness of different acids and different types of surfactants in the antimicrobial salt formulations. In one experiment, test solutions containing ˜17% by weight of formulas containing various levels of sodium chloride, 100 ppm sodium lauryl sulfate, and various levels of different acids were tested for effectiveness in killing L. monocytogenes at cold temperatures. The same test procedure was used as described above (test solutions were plated on MOX TAL (Modified Oxford Medium with a Thin Agar Layer) with TSA). The controls were a solution of pure NaCl, a solution of a blend of 100 ppm SLS in NaCl, and a solution of a blend of 0.5% citric acid, 100 ppm SLS, and 99.5% NaCl.

[3] = system: Escherichia coli ATCC 11229; experiment: E. coli kill in acid/SLS solutions with and without salt; conditions: for % Kill of E. Coli: 0.6409 grams malic acid and 0.0107 grams sodium lauryl sulfate per liter, with 107.0 grams of the listed salt or without; for kill of E. coli by solution containing only the salt: only the salt and no other ingredient
Method: Ten percent by weight solutions were prepared of a formula of 0.6% citric or malic acid, 100 ppm SLS, and 99.4% sodium chloride. Solutions were also prepared containing an identical concentration of acid and SLS but no sodium chloride. […] A 1.0 ml aliquot of this suspension was added to 100 ml of test solution at room temperature and mixed well, providing an initial inoculum of 10^3 CFU/ml. After 30 minutes, the E. coli populations were enumerated by plating on tryptic soy agar (TSA), making serial dilutions as necessary in BPBW. Plates were incubated at 35° C.+/−2° C. for approximately 24 hours. Colonies were then counted and compared to the initial inoculum counts.
A test was run to determine if salts other than sodium chloride would show a synergistic antimicrobial effect with an acid and sodium lauryl sulfate. Solutions containing 0.6409 grams malic acid and 0.0107 grams sodium lauryl sulfate per liter were prepared with and without 107.0 grams of various salts (added on an anhydrous basis). Solutions were inoculated with E. coli described above and the amount of bacterial kill was measured to determine if the added salt caused an increase in the effectiveness of the acid/surfactant active ingredients.

L. monocytogenes [4] = experiment: L. monocytogenes challenge in beef plant chill brine at 4° C.; conditions: after 4 hours at 4° C.; surfactant added to beef plant brine, approximately 17% sodium chloride
Method: as §1
Several tests were carried out to determine the effectiveness of embodiments according to the invention in meat processing chill brines. In one experiment, brine was taken at the end of a production week from a brine chiller used in a ready to eat, cooked beef production line. The sodium chloride concentration in this brine was approximately 17%. Samples of the brine with and without added surfactant were inoculated with a cocktail of L. monocytogenes as per the procedure described above, incubated at 4° C. for four hours, and then plated to determine L. monocytogenes survival.

[5] = Table 2, different salts and salt concentrations
[6] = 17% by weight of formula of 99.7% sodium chloride, 0.3% citric acid, 500 ppm of listed surfactant

[Cl-].[Na+] [20% NaCl (control), sodium chloride, reference compound]
L. mono count (L. monocytogenes [1]; Table 1): 1.0 × 10^5 cfu/mL
L. mono count (L. monocytogenes [1]; [5]): 4.0 × 10^5 cfu/mL
Population at 4 hours (L. monocytogenes [2]): 4.32 log cfu/mL

CC(=O)[O-].[K+] [20% Potassium Acetate, Potassium Acetate, reference compound]
L. mono count (L. monocytogenes [1]; [5]): 4.2 × 10^5 cfu/mL

CC(=O)[O-].[Na+] [20% Sodium Acetate, Sodium Acetate, reference compound]
L. mono count (L. monocytogenes [1]; [5]): 3.0 × 10^4 cfu/mL

O=C[O-].[Na+] [20% Sodium Formate, Sodium Formate, reference compound]
L. mono count (L. monocytogenes [1]; [5]): 3.6 × 10^5 cfu/mL

CCCCCCCCCCCCOS(=O)(=O)[O-].[Na+] [50 ppm SLS (no NaCl), sodium lauryl sulfate]
Population at 4 hours (L. monocytogenes [2]): 3.90* log cfu/mL

[Ca+2].[Cl-].[Cl-] [Calcium chloride]
% Kill of E. Coli [3]: 55%
kill of E. coli by solution containing only the salt [3]: 26%

[Cl-].[Cl-].[Mg+2] [Magnesium chloride]
% Kill of E. Coli [3]: 56%
kill of E. coli by solution containing only the salt [3]: 61%

O=S(=O)([O-])[O-].[Mg+2] [Magnesium sulfate]
% Kill of E. Coli [3]: 93%
kill of E. coli by solution containing only the salt [3]: 10%

[Cl-].[K+] [Potassium chloride]
% Kill of E. Coli [3]: 18%
kill of E. coli by solution containing only the salt [3]: no bacterial kill

O=S(=O)([O-])[O-].[K+].[K+] [Potassium sulfate]
% Kill of E. Coli [3]: 34%
kill of E. coli by solution containing only the salt [3]: no bacterial kill

[Cl-].[Na+] [Salt control, reference compound]
L. monocytogenes, Time 4 Hours (L. monocytogenes [2]; ˜17% solution of NaCl, 100 ppm SLS and listed acid to pH ˜3.6): 1380 CFU/ml
L. monocytogenes, Time 0 (L. monocytogenes [2]; ˜17% solution of NaCl, 100 ppm SLS and listed acid to pH ˜3.6, MOX TAL): 850 CFU/ml

O=S(=O)([O-])[O-].[Na+].[Na+] [Sodium sulfate]
% Kill of E. Coli [3]: 87%
kill of E. coli by solution containing only the salt [3]: no bacterial kill

[Cl-].[Na+] [sodium chloride, reference compound]
% Kill of E. Coli [3]: 78%
kill of the test microorganisms ([3]; 10% solution of pure sodium chloride): does not provide any significant kill
log reduction of the L. monocytogenes over a 24-hour period (L. monocytogenes [2]; brine of sodium chloride alone, 24-hour period): < 1 log

C12(branched) sodium diphenyl oxide disulfonate
L. mono count (L. monocytogenes [1]; [5]): 3.1 × 10^4 cfu/mL

alkyl polyglucoside [50 ppm alkyl polyglucoside]
L. mono count (L. monocytogenes [1]; Table 1): 9.6 × 10^4 cfu/mL

alkylpolyglucoside
L. monocytogenes, Time 4 Hours (L. monocytogenes [2]; [6]): 0 CFU/ml
L. monocytogenes, Time 0 (L. monocytogenes [2]; [6]): 280 CFU/ml

alpha-olefin sulfonate
L. monocytogenes, Time 4 Hours (L. monocytogenes [2]; [6]): 0 CFU/ml
L. monocytogenes, Time 0 (L. monocytogenes [2]; [6]): 370 CFU/ml

dodecyl diphenyl oxide disulfonate
L. monocytogenes, Time 4 Hours (L. monocytogenes [2]; [6]): 0 CFU/ml
L. monocytogenes, Time 0 (L. monocytogenes [2]; [6]): 0 CFU/ml

fatty alkanolamide
L. monocytogenes, Time 4 Hours (L. monocytogenes [2]; [6]): 0 CFU/ml
L. monocytogenes, Time 0 (L. monocytogenes [2]; [6]): 470 CFU/ml

fatty alkanolamide [50 ppm fatty alkanolamide]
L. mono count (L. monocytogenes [1]; Table 1): 1.1 × 10^4 cfu/mL
L. mono count (L. monocytogenes [4]): <10 cfu/mL

fatty alkanolaminde [12.5 ppm fatty alkanolaminde]
L. mono count (L. monocytogenes [4]): 40 cfu/mL

fatty alkanolaminde [25 ppm fatty alkanolaminde]
L. mono count (L. monocytogenes [4]): <10 cfu/mL

lauramine oxide
L. monocytogenes, Time 4 Hours (L. monocytogenes [2]; [6]): 0 CFU/ml
L. monocytogenes, Time 0 (L. monocytogenes [2]; [6]): 2 CFU/ml

lauramine oxide [50 ppm lauramine oxide]
L. mono count (L. monocytogenes [1]; Table 1): 3.6 × 10^3 cfu/mL
L. mono count (L. monocytogenes [1]; [5]): 5.8 × 10^4 cfu/mL
L. mono count (L. monocytogenes [4]): <10 cfu/mL

nonylphenol ethoxylate
L. monocytogenes, Time 4 Hours (L. monocytogenes [2]; [6]): 0 CFU/ml
L. monocytogenes, Time 0 (L. monocytogenes [2]; [6]): 460 CFU/ml

nonylphenol ethoxylate [12.5 ppm nonylphenol ethoxylate]
L. mono count (L. monocytogenes [4]): 20 cfu/mL

nonylphenol ethoxylate [25 ppm nonylphenol ethoxylate]
L. mono count (L. monocytogenes [4]): <10 cfu/mL

nonylphenol ethoxylate [50 ppm nonylphenol ethoxylate]
L. mono count (L. monocytogenes [1]; Table 1): 1.3 × 10^5 cfu/mL
L. mono count (L. monocytogenes [4]): <10 cfu/mL

polyoxyethylene-polyoxypropylene block polymer
L. monocytogenes, Time 4 Hours (L. monocytogenes [2]; [6]): 610 CFU/ml
L. monocytogenes, Time 0 (L. monocytogenes [2]; [6]): 820 CFU/ml

sodium linear alkyl-benzene sulfonate
L. monocytogenes, Time 4 Hours (L. monocytogenes [2]; [6]): 0 CFU/ml
L. monocytogenes, Time 0 (L. monocytogenes [2]; [6]): 490 CFU/ml

sodium linear alkylbenzene [25 ppm sodium linear alkylbenzene]
L. mono count (L. monocytogenes [4]): <10 cfu/mL

sodium linear alkylbenzene sulfonate
L. mono count (L. monocytogenes [1]; Table 1): 5.9 × 10^3 cfu/mL
L. mono count (L. monocytogenes [4]): <10 cfu/mL

sodium olefin sulfonate [12.5 ppm sodium olefin sulfonate]
L. mono count (L. monocytogenes [4]): 110 cfu/mL

sodium olefin sulfonate [25 ppm sodium olefin sulfonate]
L. mono count (L. monocytogenes [4]): 60 cfu/mL

sodium salt of sulfonated oleic acid
L. monocytogenes, Time 4 Hours (L. monocytogenes [2]; [6]): 0 CFU/ml
L. monocytogenes, Time 0 (L. monocytogenes [2]; [6]): 240 CFU/ml

sodium xylene sulfonate
L. monocytogenes, Time 4 Hours (L. monocytogenes [2]; [6]): 820 CFU/ml
L. monocytogenes, Time 0 (L. monocytogenes [2]; [6]): 910 CFU/ml

sulfonated oleic acid, Na salt [50 ppm sulfonated oleic acid, Na salt]
L. mono count (L. monocytogenes [1]; Table 1): 1.3 × 10^5 cfu/mL
